Data: paper PMC4084891, “Decreased Phenotypic Susceptibility to Etravirine in Patients with Predicted Genotypic Sensitivity” (PLoS ONE, 2014)
Read-outs that look alike come from different tables or passages of the source.

Assays:
[1] = target: HIV-1 reverse transcriptase, recovered from plasma of HIV-1 infected patients; parameters: method as in PMID 23364785; details: cited from earlier work
[2] = system: HIV-1 reverse transcriptase, recovered from plasma of HIV-1 infected patients; assay: ExaVir Drug susceptibility assay (RT-based phenotypic), RT recovered from patient plasma; format: biochemical
Experimental: Lysates containing intraviral RT were recovered from plasma using ExaVir Load, version 3 (Cavidi, Uppsala, Sweden). Briefly, virions from up to 1 ml plasma were bound to an ion exchange gel, washed, and the RT was extracted by lysing the purified virions. The RT was used to catalyse the incorporation of bromodeoxyuridine triphosphate (BrdUTP) into DNA via a poly-rA (ribodenylic acid template) plate. The amount of BrdU monophosphate (BrdUMP) incorporated into DNA was detected with an alkaline phosphatase (Ap) conjugated anti-BrdU monoclonal antibody. The Ap substrate para-nitrophenyl-diphosphate was used for colorimetric detection. […] The RT activity at each drug concentration was recalculated into percentage of RT activity in the absence of drug. The IC50 values were calculated using the median effect equation [23]. […] In the present study, two reference recombinant RTs, BH10-wild-type and its mutant form L100I, were analysed together with patient samples in each assay. The results of the phenotypic tests were evaluated independently by two persons (E.A, C.FR.K).

Question: What does the source list for Cc1cc(C#N)cc(C)c1Oc1nc(Nc2ccc(C#N)cc2)nc(N)c1Br [ETR, 4-[[6-amino-5-bromo-2[(4-cyanophenyl)amino]-4-pyrimidinyl]oxy]-3.5-dimethylbenzonitrile]?
Answer: IC50 ([1]; read-out: IC50 for ETR, mean ± SD (reproducibility analysis, first value), not influenced by RT amount within 40–828 fg/ml RT): 1.6 ± 0.03 µM; IC50 ([1]; read-out: IC50 for ETR, mean ± SD (reproducibility analysis, second value), not influenced by RT amount within 40–828 fg/ml RT): 3.1 ± 0.04 µM; IC50 ([1]; read-out: IC50 for RT activity in the presence of ETR, mean ±SD, treatment-naïve patients and reference recombinant RTs): 2.5 ± 1 µM; result of phenotypic assay ([2]; patient 4, K103R mutation, NNRTI-naïve): sensitive; result of phenotypic assay ([2]; patients/samples 7, 11b, 15, 9a and 12, NNRTI stopped earlier): No phenotypic resistance; IC50 ([2]; read-out: IC50 to ETR, mean ±SD, ten samples considered sensitive (3a, 4, 7, 9a, 11b, 12, 15, 16, 17, 18)): 3.1 ± 1.3 µM; IC50 ([2]; read-out: IC50 to ETR, range, six samples with decreased susceptibility (1, 9b, 10, 11a, 19, 20)): 6.4 to 13.6 µM; IC50 ([2]; read-out: IC50 to ETR, patient sample 1): 11.8 µM; IC50 ([2]; read-out: IC50 to ETR, patient sample 2): > 100 µM; IC50 ([2]; read-out: IC50 to ETR, patient sample 3b): > 100 µM; IC50 ([2]; read-out: IC50 to ETR, patient sample 6): > 100 µM; IC50 ([2]; read-out: IC50 to ETR, patient sample 8a): > 100 µM; IC50 ([2]; read-out: IC50 to ETR, patient sample 8b): > 100 µM; IC50 ([2]; read-out: IC50 to ETR, patient sample 9b): 9.2 µM; IC50 ([2]; read-out: IC50 to ETR, patient sample 10): 13.6 µM; IC50 ([2]; read-out: IC50 to ETR, patient sample 11a): 7.3 µM; IC50 ([2]; read-out: IC50 to ETR, patient sample 19): 6.4 µM; IC50 ([2]; read-out: IC50 to ETR, patient sample 20): 7.2 µM
